Source: ChEMBL document CHEMBL3638918, “Pyrazole derivatives” (2015)

What was measured:
[1] = target: Trace amine-associated receptor 1 (Mus musculus, UniProt Q923Y8); assay: Radioligand Binding: The TAAR1 radioligand 3[H](S)-4-[(ethyl-phenyl-amino)-methyl]-4,5-dihydro-oxazol-2-ylamine (described in WO 2008/098857) was used at a concentration equal to the calculated Kd value, that was usually around 0.7 nM, resulting in the binding of approximately 0.5% of the radioligand and a specific binding representing approximately 70% of the total binding. Nonspecific binding was defined as the amount of 3[H](S)-4-[(ethyl-phenyl-amino)-methyl]-4,5-dihydro-oxazol-2-ylamine bound in the presence of 10 uM unlabeled ligand. All compounds were tested at a broad range of concentrations ([…]) in duplicates.
[2] = target: Trace amine-associated receptor 1 (Rattus norvegicus, UniProt Q923Y9); assay: Nonspecific binding was defined as the amount of 3-[H]-(S)-4-[(ethyl-phenyl-amino)-methyl]-4,5-dihydro-oxazol-2-ylamine bound in the presence of 10 uM unlabeled ligand. All compounds were tested at a broad range of concentrations (10 pM to 10 uM) in duplicates. The test compounds (20 ul/well) were transferred into a 96 deep well plate (TreffLab), and 180 ul of HEPES-NaOH (20 mM, pH 7.4) containing MgCl2 (10 mM) and CaCl2 (2 mM) (binding buffer), 300 ul of the radioligand 3[H](S)-4-[(ethyl-phenyl-amino)-methyl]-4,5-dihydro-oxazol-2-ylamine at a concentration of 3.3Kd in nM.; format: cell membranes
Sequence of Trace amine-associated receptor 1 (Rattus norvegicus, UniProt Q923Y9) (Q923Y9 whole entry): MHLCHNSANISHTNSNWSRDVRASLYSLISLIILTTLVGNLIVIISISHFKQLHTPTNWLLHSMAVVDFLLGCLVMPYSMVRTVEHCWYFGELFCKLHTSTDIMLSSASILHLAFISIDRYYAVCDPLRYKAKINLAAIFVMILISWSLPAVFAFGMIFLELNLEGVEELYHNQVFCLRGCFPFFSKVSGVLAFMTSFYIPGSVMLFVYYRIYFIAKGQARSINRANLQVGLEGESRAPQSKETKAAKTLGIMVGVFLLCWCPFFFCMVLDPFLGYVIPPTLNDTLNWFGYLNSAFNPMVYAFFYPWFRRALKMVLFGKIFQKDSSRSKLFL

Sequence of Trace amine-associated receptor 1 (Mus musculus, UniProt Q923Y8) (Q923Y8 whole entry): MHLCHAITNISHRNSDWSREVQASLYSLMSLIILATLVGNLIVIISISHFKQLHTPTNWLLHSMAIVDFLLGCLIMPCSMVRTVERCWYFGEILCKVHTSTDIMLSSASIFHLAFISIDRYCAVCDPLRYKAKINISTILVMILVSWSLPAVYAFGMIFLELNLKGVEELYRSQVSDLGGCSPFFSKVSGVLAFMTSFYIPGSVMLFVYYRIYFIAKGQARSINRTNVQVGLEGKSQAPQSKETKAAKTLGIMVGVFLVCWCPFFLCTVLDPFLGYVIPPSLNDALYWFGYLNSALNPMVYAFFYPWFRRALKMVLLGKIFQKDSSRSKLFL

Ki [1]: 6.4 nM
Ki [2]: 8.8 nM
SMILES: COc1cccc(-c2cc(C(=O)Nc3ccc([C@H]4CNCCO4)cc3)n(C)n2)c1
